Test results from patent US20240108702A1, “Use Of Naturally Occurring Cyclic Peptides For Treatment Of SARS-COV-2 Infection” (The University of Southern California, priority 2021, published 2024).
Read-outs that look alike come from different tables or passages of the source. Where a SMILES comes first, the peptide text is derived from it. Bridges are numbered along the chain shown (N, C = ends).

Details: for LOAEL: i.v.
[1] = female rats, 5 mg/kg/day, Day 8, median
[2] = female rats, 10 mg/kg/day, Day 8, median
[3] = female rats, 20 mg/kg, Day 2, median
[4] = male rats, 5 mg/kg/day, Day 8, median
[5] = male rats, 10 mg/kg/day, Day 8, median
[6] = male rats, 20 mg/kg, Day 2, median

Compound: CC[C@H](C)[C@@H]1NC(=O)[C@@H]2CSSC[C@H](NC(=O)[C@H](CCCNC(=N)N)NC(=O)[C@@H]3CSSC[C@H](NC1=O)C(=O)N[C@@H]([C@@H](C)O)C(=O)N[C@@H](CCCNC(=N)N)C(=O)NCC(=O)N[C@@H](Cc1ccccc1)C(=O)N3)C(=O)N[C@@H](CC(C)C)C(=O)N[C@H]1CSSC[C@H](NC(=O)[C@H](C(C)C)NC(=O)CNC(=O)[C@H](CCCNC(=N)N)NC(=O)[C@H](CCCNC(=N)N)NC1=O)C(=O)N[C@@H](CCCNC(=N)N)C(=O)N2 [Peptide 1] (cyclo(GFCRCLCRRGVCRCICTR); disulfide 3-16, 5-14, 7-12)
- LOAEL (Sprague-Dawley rats, study duration 7 days (Table 8)): 20 mg/kg/day
- mortality (determined unrelated to treatment) (female rats, 5 mg/kg dose group, found dead Day 15): 1 out of 16
- A/G [1]: 2.10
- ALP [1]: 92.0 U/L
- ALT [1]: 35.0 U/L
- APTT [1]: 10.6 s
- AST [1]: 139.0 U/L
- Albumin [1]: 3.9 g/dL
- Basophils [1]: 0.3%
- Basophils absolute [1]: 0.02 10^3/mm^3
- CK [1]: 792 U/L
- Calcium [1]: 9.80 mg/dL
- Chloride [1]: 105.0 mmol/L
- Cholesterol [1]: 55.0 mg/dL
- Creatinine [1]: 0.3 mg/dL
- Eosinophils [1]: 3.6%
- Eosinophils absolute [1]: 0.30 10^3/mm^3
- Fibrinogen [1]: 223 mg/dL
- GGT [1]: 0.0 U/L
- Globulin [1]: 1.8 g/dL
- Glucose [1]: 97 mg/dL
- HDW [1]: 2.37 g/dL
- Hct [1]: 40.5%
- Hemoglobin [1]: 13.5 g/dL
- K [1]: 4.9 mmol/L
- LUC [1]: 0.3%
- LUC absolute [1]: 0.02 10^3/mm^3
- Lymphocyte absolute [1]: 4.78 10^3/mm^3
- Lymphocytes [1]: 68.1%
- MCH [1]: 19.1 pg
- MCHC [1]: 33.4 g/dL
- MCV [1]: 57.9 fL
- Monocyte absolute [1]: 0.17 10^3/mm^3
- Monocytes [1]: 2.6%
- Na [1]: 143 mmol/L
- Neutrophil absolute [1]: 1.33 10^3/mm^3
- Neutrophils [1]: 26.7%
- PT [1]: 16.3 s
- Phos [1]: 7.3 mg/dL
- Platelets [1]: 801 10^3/mm^3
- RBC [1]: 6.88 10^6/mm^3
- RDW [1]: 12.7%
- Reticulocytes [1]: 3.9%
- Reticulocytes absolute [1]: 256.7 10^3/mm^3
- T-Bil [1]: 0.00 mg/dL
- TP [1]: 5.8 g/dL
- Triglycerides [1]: 25 mg/dL
- Urea N [1]: 20 mg/dL
- WBC [1]: 6.50 10^3/mm^3
- A/G [2]: 2.15
- ALP [2]: 109.5 U/L
- ALT [2]: 32.5 U/L
- APTT [2]: 10.9 s
- AST [2]: 122.0 U/L
- Albumin [2]: 3.9 g/dL
- Basophils [2]: 0.4%
- Basophils absolute [2]: 0.04 10^3/mm^3
- CK [2]: 474 U/L
- Calcium [2]: 9.95 mg/dL
- Chloride [2]: 105.0 mmol/L
- Cholesterol [2]: 55.0 mg/dL
- Creatinine [2]: 0.3 mg/dL
- Eosinophils [2]: 3.3%
- Eosinophils absolute [2]: 0.33 10^3/mm^3
- Fibrinogen [2]: 283 mg/dL
- GGT [2]: 0.0 U/L
- Globulin [2]: 1.8 g/dL
- Glucose [2]: 99 mg/dL
- HDW [2]: 2.45 g/dL
- Hct [2]: 41.2%
- Hemoglobin [2]: 13.7 g/dL
- K [2]: 5.05 mmol/L
- LUC [2]: 0.35%
- LUC absolute [2]: 0.04 10^3/mm^3
- Lymphocyte absolute [2]: 7.13 10^3/mm^3
- Lymphocytes [2]: 72.0%
- MCH [2]: 19.0 pg
- MCHC [2]: 33.3 g/dL
- MCV [2]: 57.3 fL
- Monocyte absolute [2]: 0.39 10^3/mm^3
- Monocytes [2]: 3.5%
- Na [2]: 142.5 mmol/L
- Neutrophil absolute [2]: 2.18 10^3/mm^3
- Neutrophils [2]: 19.9%
- PT [2]: 17.1 s
- Phos [2]: 7.05 mg/dL
- Platelets [2]: 939 10^3/mm^3
- RBC [2]: 7.21 10^6/mm^3
- RDW [2]: 13.0%
- Reticulocytes [2]: 4.1%
- Reticulocytes absolute [2]: 277.3 10^3/mm^3
- T-Bil [2]: 0.00 mg/dL
- TP [2]: 5.7 g/dL
- Triglycerides [2]: 26 mg/dL
- Urea N [2]: 21 mg/dL
- WBC [2]: 10.75 10^3/mm^3
- A/G [3]: 3.00
- ALP [3]: 142.0 U/L
- ALT [3]: 62.0 U/L
- APTT [3]: 29.2 s
- AST [3]: 397.0 U/L
- Albumin [3]: 3.0 g/dL
- Basophils [3]: 0.5%
- Basophils absolute [3]: 0.06 10^3/mm^3
- CK [3]: 1,506 U/L
- Calcium [3]: 10.30 mg/dL
- Chloride [3]: 104.0 mmol/L
- Cholesterol [3]: 52.0 mg/dL
- Creatinine [3]: 0.5 mg/dL
- Eosinophils [3]: 1.5%
- Eosinophils absolute [3]: 0.13 10^3/mm^3
- Fibrinogen [3]: 83 mg/dL
- GGT [3]: 4.0 U/L
- Globulin [3]: 1.0 g/dL
- Glucose [3]: 218 mg/dL
- HDW [3]: 2.37 g/dL
- Hct [3]: 46.9%
- Hemoglobin [3]: 15.2 g/dL
- K [3]: 4.9 mmol/L
- LUC [3]: 0.5%
- LUC absolute [3]: 0.05 10^3/mm^3
- Lymphocyte absolute [3]: 5.56 10^3/mm^3
- Lymphocytes [3]: 60.5%
- MCH [3]: 19.6 pg
- MCHC [3]: 32.3 g/dL
- MCV [3]: 61.0 fL
- Monocyte absolute [3]: 0.33 10^3/mm^3
- Monocytes [3]: 3.8%
- Na [3]: 141 mmol/L
- Neutrophil absolute [3]: 2.55 10^3/mm^3
- Neutrophils [3]: 33.6%
- PT [3]: 23.5 s
- Phos [3]: 9.3 mg/dL
- Platelets [3]: 604 10^3/mm^3
- RBC [3]: 7.63 10^6/mm^3
- RDW [3]: 12.2%
- Reticulocytes [3]: 5.3%
- Reticulocytes absolute [3]: 326.0 10^3/mm^3
- T-Bil [3]: 0.00 mg/dL
- TP [3]: 3.90 g/dL
- Triglycerides [3]: 106 mg/dL
- Urea N [3]: 20 mg/dL
- WBC [3]: 8.15 10^3/mm^3
- microscopic findings, liver (female rats, 5 and 10 mg/kg/day, end of treatment, non-adverse, recoverable): minimal to mild liver necrosis
- microscopic findings, adrenal (male and female rats, 20 mg/kg): Mild to severe adrenal necrosis
- body weight (male and female rats, 20 mg/kg dosing group): significant decreases in body weights
- A/G [4]: 2.2
- ALP [4]: 212.0 U/L
- ALT [4]: 40.0 U/L
- APTT [4]: 14.8 s
- AST [4]: 133.0 U/L
- Albumin [4]: 3.8 g/dL
- Basophils [4]: 0.3%
- Basophils absolute [4]: 0.03 10^3/mm^3
- CK [4]: 766 U/L
- Calcium [4]: 9.75 mg/dL
- Chloride [4]: 104.5 mmol/L
- Cholesterol [4]: 70.5 mg/dL
- Creatinine [4]: 0.2 mg/dL
- Eosinophils [4]: 3.9%
- Eosinophils absolute [4]: 0.37 10^3/mm^3
- Fibrinogen [4]: 263 mg/dL
- GGT [4]: 0.0 U/L
- Globulin [4]: 1.7 g/dL
- Glucose [4]: 73 mg/dL
- HDW [4]: 2.30 g/dL
- Hct [4]: 43.8%
- Hemoglobin [4]: 14.1 g/dL
- K [4]: 5.15 mmol/L
- LUC [4]: 0.3%
- LUC absolute [4]: 0.03 10^3/mm^3
- Lymphocyte absolute [4]: 6.03 10^3/mm^3
- Lymphocytes [4]: 71.8%
- MCH [4]: 20.0 pg
- MCHC [4]: 32.1 g/dL
- MCV [4]: 61.8 fL
- Monocyte absolute [4]: 0.22 10^3/mm^3
- Monocytes [4]: 2.9%
- Na [4]: 144 mmol/L
- Neutrophil absolute [4]: 2.04 10^3/mm^3
- Neutrophils [4]: 20.2%
- PT [4]: 16.0 s
- Phos [4]: 8.45 mg/dL
- Platelets [4]: 1,052 10^3/mm^3
- RBC [4]: 7.06 10^6/mm^3
- RDW [4]: 14.0%
- Reticulocytes [4]: 5.2%
- Reticulocytes absolute [4]: 359.7 10^3/mm^3
- T-Bil [4]: 0.00 mg/dL
- TP [4]: 5.5 g/dL
- Triglycerides [4]: 37 mg/dL
- Urea N [4]: 16.5 mg/dL
- WBC [4]: 8.40 10^3/mm^3
- A/G [5]: 2.35
- ALP [5]: 212.5 U/L
- ALT [5]: 32.5 U/L
- APTT [5]: 14.6 s
- AST [5]: 113.5 U/L
- Albumin [5]: 3.7 g/dL
- Basophils [5]: 0.3%
- Basophils absolute [5]: 0.03 10^3/mm^3
- CK [5]: 613 U/L
- Calcium [5]: 9.70 mg/dL
- Chloride [5]: 105.0 mmol/L
- Cholesterol [5]: 66.0 mg/dL
- Creatinine [5]: 0.3 mg/dL
- Eosinophils [5]: 3.0%
- Eosinophils absolute [5]: 0.31 10^3/mm^3
- Fibrinogen [5]: 261 mg/dL
- GGT [5]: 0.0 U/L
- Globulin [5]: 1.6 g/dL
- Glucose [5]: 83 mg/dL
- HDW [5]: 2.20 g/dL
- Hct [5]: 43.7%
- Hemoglobin [5]: 14.2 g/dL
- K [5]: 5.1 mmol/L
- LUC [5]: 0.3%
- LUC absolute [5]: 0.03 10^3/mm^3
- Lymphocyte absolute [5]: 6.69 10^3/mm^3
- Lymphocytes [5]: 70.9%
- MCH [5]: 20.2 pg
- MCHC [5]: 32.4 g/dL
- MCV [5]: 62.6 fL
- Monocyte absolute [5]: 0.28 10^3/mm^3
- Monocytes [5]: 2.7%
- Na [5]: 144 mmol/L
- Neutrophil absolute [5]: 1.85 10^3/mm^3
- Neutrophils [5]: 22.6%
- PT [5]: 17.5 s
- Phos [5]: 8.6 mg/dL
- Platelets [5]: 1,086 10^3/mm^3
- RBC [5]: 7.06 10^6/mm^3
- RDW [5]: 13.1%
- Reticulocytes [5]: 4.6%
- Reticulocytes absolute [5]: 314.2 10^3/mm^3
- T-Bil [5]: 0.00 mg/dL
- TP [5]: 5.35 g/dL
- Triglycerides [5]: 29 mg/dL
- Urea N [5]: 19.0 mg/dL
- WBC [5]: 10.05 10^3/mm^3
- A/G [6]: 2.70
- ALP [6]: 232.0 U/L
- ALT [6]: 74.0 U/L
- APTT [6]: 18.5 s
- AST [6]: 245.0 U/L
- Albumin [6]: 2.7 g/dL
- Basophils [6]: 0.2%
- Basophils absolute [6]: 0.03 10^3/mm^3
- CK [6]: 707 U/L
- Calcium [6]: 9.40 mg/dL
- Chloride [6]: 101.0 mmol/L
- Cholesterol [6]: 67.0 mg/dL
- Creatinine [6]: 0.4 mg/dL
- Eosinophils [6]: 1.1%
- Eosinophils absolute [6]: 0.15 10^3/mm^3
- Fibrinogen [6]: 98 mg/dL
- GGT [6]: 0.0 U/L
- Globulin [6]: 1.0 g/dL
- Glucose [6]: 175 mg/dL
- HDW [6]: 2.44 g/dL
- Hct [6]: 37.3%
- Hemoglobin [6]: 12.1 g/dL
- K [6]: 5.1 mmol/L
- LUC [6]: 0.5%
- LUC absolute [6]: 0.07 10^3/mm^3
- Lymphocyte absolute [6]: 4.24 10^3/mm^3
- Lymphocytes [6]: 30.9%
- MCH [6]: 20.0 pg
- MCHC [6]: 31.8 g/dL
- MCV [6]: 62.5 fL
- Monocyte absolute [6]: 0.93 10^3/mm^3
- Monocytes [6]: 8.1%
- Na [6]: 140 mmol/L
- Neutrophil absolute [6]: 8.40 10^3/mm^3
- Neutrophils [6]: 61.1%
- PT [6]: 21.3 s
- Phos [6]: 9.3 mg/dL
- Platelets [6]: 728 10^3/mm^3
- RBC [6]: 6.04 10^6/mm^3
- RDW [6]: 14.3%
- Reticulocytes [6]: 6.4%
- Reticulocytes absolute [6]: 373.3 10^3/mm^3
- T-Bil [6]: 0.10 mg/dL
- TP [6]: 3.7 g/dL
- Triglycerides [6]: 193 mg/dL
- Urea N [6]: 28 mg/dL
- WBC [6]: 13.70 10^3/mm^3
- microscopic findings, liver (male rats, 20 mg/kg, adverse): minimal to moderate liver necrosis
- LOAEL (rats): 20 mg/kg
- clinical signs (rats, once daily i.v. infusion 5 and 10 mg/kg/day, temporary, resolved in recovery): non-adverse, treatment-related clinical signs
- acute, treatment-related mortality (rats, single i.v. 20 mg/kg, Day 1): 5 out of 12
